Test results taken from US20060110594A1, “Polymer-coated substrates for binding biomolecules and methods of making and using thereof” (priority 2004, published 2006).
“And” between values parts separate entries of the source, which are not always exact repeats. Equal entries are not always repeated. Where two headings read alike, the source gives them in different places.

Legend:
[1] = biological target: streptavidin (Streptomyces avidinii, UniProt P22629); experiment: Small molecule binding to streptavidin immobilized on EMA, Corning LID; details: for signal-to-noise ratio: binding to streptavidin immobilized on EMA
Chain of streptavidin (P22629 25-183, species assumed): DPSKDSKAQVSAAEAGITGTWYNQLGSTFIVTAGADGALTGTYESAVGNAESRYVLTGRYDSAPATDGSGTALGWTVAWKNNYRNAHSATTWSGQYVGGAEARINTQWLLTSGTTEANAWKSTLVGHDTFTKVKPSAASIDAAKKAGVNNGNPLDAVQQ
Protocol: Streptavidin was immobilized on an EMA coated LID microplate by incubating the wells with a solution of 25 ug/mL of the protein in an acetate buffer (20 mM, pH 5.5) for 15 minutes. As negative controls, additional wells were blocked with ethanolamine. The binding of the small molecule fluorescein-biotin (“Fl-biotin”, 831 Da) was monitored as a function of time in the LID instrument. A 100 nM solution of Fl-biotin in PBS was introduced into each well and allowed to bind for several minutes. […] The data have been corrected for bulk index of refraction effects by subtracting out the response from the negative control well. […] This experiment was repeated in each column of the plate with similar results.

[2] = biological target: human serum albumin (Homo sapiens, UniProt P02768); experiment: Drug binding to human serum albumin immobilized on EMA, Corning LID
Chain of human serum albumin (P02768 25-609): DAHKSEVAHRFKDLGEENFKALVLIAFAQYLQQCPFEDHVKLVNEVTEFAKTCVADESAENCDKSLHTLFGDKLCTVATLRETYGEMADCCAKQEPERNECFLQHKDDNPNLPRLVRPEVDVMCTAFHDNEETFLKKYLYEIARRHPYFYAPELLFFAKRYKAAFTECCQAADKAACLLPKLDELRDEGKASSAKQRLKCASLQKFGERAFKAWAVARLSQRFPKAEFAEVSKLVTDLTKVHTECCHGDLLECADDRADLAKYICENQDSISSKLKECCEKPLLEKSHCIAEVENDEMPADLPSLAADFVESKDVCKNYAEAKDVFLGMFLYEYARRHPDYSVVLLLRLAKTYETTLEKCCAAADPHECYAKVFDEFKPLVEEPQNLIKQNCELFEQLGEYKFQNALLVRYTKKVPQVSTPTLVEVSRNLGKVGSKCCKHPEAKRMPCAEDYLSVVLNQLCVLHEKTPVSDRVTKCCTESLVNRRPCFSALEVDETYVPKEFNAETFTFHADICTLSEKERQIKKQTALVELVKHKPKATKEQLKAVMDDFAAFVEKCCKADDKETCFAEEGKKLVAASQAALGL
Protocol: HSA was immobilized on the sensor surface by incubating the wells with a solution of 60 ug/mL of the protein in an acetate buffer (20 mM, pH 5.5) for 15 minutes. As negative controls, additional wells were blocked with ethanolamine. After thorough washing with PBS buffer and water, residual reactive groups were blocked by incubating the wells for 10 minutes with ethanolamine (200 mM, pH 9.2).

[3] = tested on: Lys-D-Ala-D-Ala; experiment: Vancomycin competitive inhibition on EMA coated microplate, Corning LID; format: binding; details: in the presence of excess (250 uM) Lys-D-Ala-D-Ala
Protocol: (§1) To test the specificity of the interaction, a competitive binding assay was performed in which the surface was incubated with a fixed (5 μM) concentration of vancomycin in the presence of varying concentrations of the peptide Lys-D-Ala-D-Ala. […] Similar competitive inhibition experiments were performed on a Corning LID microplate coated with EMA (see FIG. 7).

[4] = tested on: Lys-D-Ala-D-Ala; experiment: Vancomycin binding to immobilized Lys-D-Ala-D-Ala, SPR (Biacore 2000); details: for Total Signal: 5 μM vancomycin; for Nonspecific Binding: 5 uM vancomycin + 500 μM DADA; for Kd: Scatchard analysis, vancomycin 10, 5, 2.5, 1.25 μM
Protocol: (Vancomycin is an antibiotic that binds to the C-terminal D-Ala-D-Ala group of Gram-positive bacterial cell wall precursors and inhibits cell wall synthesis.) Experiments were performed on the Biacore 2000 SPR instrument using gold sensor chips modified with either EMA or poly(triethylene glycol-co-maleic anhydride) (“PEG-MA”); for comparison, experiments were also performed on Biacore's CM5 surface.

[5] = tested on: Lys-D-Ala-D-Ala; experiment: Vancomycin competitive inhibition binding assay, SPR
Protocol: as §1

[6] = biological target: Lys-D-Ala-D-Ala; details: measured in solution (ref 12); read-out: Kd reported in the literature; cited from earlier work
[7] = isoelectric point, listed property; cited from earlier work
[8] = Streptavidin/BSA binding to biotin immobilized on MAMVE and SMA, Biacore SPR; details: streptavidin 1 μM; biotin-groups immobilized on MAMVE; BSA as control
Description: Biacore SPR detection was used for these experiments in which biotin was immobilized on the surfaces by injecting solutions of 5-(biotinamido)pentylamine over each surface. […] Non-specific binding of proteins to surfaces such as those presenting hydrophobic aromatic groups is well documented; the inertness of surfaces presenting —OCH3 groups to non-specific adsorption has also been observed (13).

[9] = Streptavidin binding to immobilized biotin on EMA coated microplate, Corning LID; details: streptavidin 100 nM in PBS, six wells
Protocol: The performance of EMA in a small molecule/protein binding assay was tested using a biotin/streptavidin model system and Corning LID detection. Biotin was immobilized in rows A-G of a Corning LID microplate by incubating each well with 75 uL of a 10 uM solution of biotin-peo-amine in borate buffer (150 mM, pH 9) for 30 minutes; row H was reacted with ethanolamine (200 mM in borate buffer, pH 9) to serve as a negative control. The plate was docked in the LID instrument and the binding of streptavidin (100 nM in phosphate buffered saline (PBS)) was monitored as a function of time as shown in FIG. 4A.

In the case of `O=C(O)CCCC[C@@H]1SC[C@@H]2NC(=O)N[C@@H]21` [biotin], the “response for binding to immobilized streptavidin” value ([1]; EMA coated LID microplate, Fl-biotin 100 nM in PBS, relative to negative control well) is reported as roughly 5 pm and the signal-to-noise ratio [1] is reported as roughly 50.
For `C[C@H]1O[C@@H](O[C@H]2[C@@H](O)C[C@H](O[C@H]3[C@@H](O)C[C@H](O[C@H]4CC[C@@]5(C)[C@H](CC[C@@H]6[C@@H]5CC[C@]5(C)[C@@H](C7=CC(=O)OC7)CC[C@]65O)C4)O[C@@H]3C)O[C@@H]2C)C[C@H](O)[C@@H]1O` [digitoxin], the “lowest concentration successfully detected” value [2] was 6 µM.
In the case of `O=C(CCCCCNC(=O)CCCC[C@@H]1SC[C@@H]2NC(=O)N[C@@H]21)NCCCCCNC(=S)Nc1ccc2c(c1)C(=O)OC21c2ccc(O)cc2Oc2cc(O)ccc21` [fluorescein-biotin], the signal-to-noise ratio [1] is reported as greater than 200.
For `CN[C@H](CC(C)C)C(=O)N[C@H]1C(=O)N[C@@H](CC(N)=O)C(=O)N[C@H]2C(=O)N[C@H]3C(=O)N[C@H](C(=O)N[C@H](C(=O)O)c4cc(O)cc(O)c4-c4cc3ccc4O)[C@H](O)c3ccc(c(Cl)c3)Oc3cc2cc(c3O[C@@H]2O[C@H](CO)[C@@H](O)[C@H](O)[C@H]2O[C@H]2C[C@](C)(N)[C@H](O)[C@H](C)O2)Oc2ccc(cc2Cl)[C@H]1O` [vancomycin], the “reduction of vancomycin binding signal” value [3] was 83%, the “Total Signal” value ([4]; CM5 surface) was 1251 RU and the “Nonspecific Binding” value ([4]; CM5 surface) was 3 RU. For the same molecule, the Kd ([4]; CM5 surface) was 280 nM and 270 nM, the “Total Signal” value ([4]; EMA surface) was 2538 RU and the “Nonspecific Binding” value ([4]; EMA surface) was 290 RU. For the same molecule, the Kd ([4]; EMA surface) was 340 nM, the “Total Signal” value ([4]; PEG-MA surface) was 2006 RU and the “Nonspecific Binding” value ([4]; PEG-MA surface) was 128 RU. The Kd ([4]; PEG-MA surface) was 1300 nM, the “amount of nonspecific binding, lower on PEG-MA relative to EMA” value ([5]; PEG-MA relative to EMA) was roughly 2 × and the binding specificity ([5]; both maleic anhydride copolymer surfaces tested (EMA, PEG-MA), 5 μM vancomycin) was greater than 90%. The Kd [6] was roughly 1000 nM.
In the case of “Lysozyme: protein immobilized on EMA, 14 kDa”, the pI [7] is given as 9.5.
In the case of “streptavidin: protein binding biotin; 60 kDa”, the pI [7] is listed as 5, the specificity of binding [8] is listed as “specific” and the average response [9] is listed as 465 pm.
